These results are taken from PMC2747657 (Bioorganic & medicinal chemistry, 2009).

One test concerns the target 5-HTT (Rattus norvegicus, UniProt P31652). Briefly: Inhibition of [3H]paroxetine binding at the 5-HTT. The note with it: for Ki: 5-HTT, Ki [3H]paroxetine; for NET/5-HTT Ratio: ratio of Ki values of NET/5-HTT, selectivity for the 5-HTT relative to the NET.
Test [1] deals with T1, NET (Rattus norvegicus, UniProt Q63380). Briefly: Inhibition of [3H]nisoxetine binding at the NET.
The next test addresses DAT (Rattus norvegicus, UniProt P23977). Briefly: Inhibition of [3H]WIN35,428 binding at the DAT.
Test [2] concerns the target T1, NET. The note with it: read-out: NET, Ki [3H]nisoxetine; inhibition of [3H]nisoxetine binding; cited from earlier work.
[3] abbreviates: relative to N-methyl compound 7a.

In general, Ki refers to a measure of affinity in units of concentration, obtained from inhibition or displacement. What is called IC50 is the concentration that gives 50% inhibition. A higher IC50 goes with weaker potency.

Each structure is given as a SMILES string. Read-outs that look alike come from different tables or passages of the source.

Chain of 5-HTT (P31652 whole entry): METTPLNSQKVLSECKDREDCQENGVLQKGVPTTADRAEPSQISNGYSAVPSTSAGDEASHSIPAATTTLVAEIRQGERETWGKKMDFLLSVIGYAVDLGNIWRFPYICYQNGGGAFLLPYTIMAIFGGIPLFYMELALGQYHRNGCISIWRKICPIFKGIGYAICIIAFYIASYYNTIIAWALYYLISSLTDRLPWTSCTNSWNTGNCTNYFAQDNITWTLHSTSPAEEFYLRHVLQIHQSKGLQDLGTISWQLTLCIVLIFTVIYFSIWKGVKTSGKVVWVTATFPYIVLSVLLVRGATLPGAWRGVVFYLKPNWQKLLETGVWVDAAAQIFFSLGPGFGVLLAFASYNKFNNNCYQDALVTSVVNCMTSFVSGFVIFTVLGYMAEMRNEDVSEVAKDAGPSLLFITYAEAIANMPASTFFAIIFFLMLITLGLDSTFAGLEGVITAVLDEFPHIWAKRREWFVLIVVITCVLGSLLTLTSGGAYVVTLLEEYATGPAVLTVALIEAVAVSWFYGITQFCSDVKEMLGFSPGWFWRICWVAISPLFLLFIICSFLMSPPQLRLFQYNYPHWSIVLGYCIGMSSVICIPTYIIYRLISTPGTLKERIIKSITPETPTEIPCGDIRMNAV
T1 sequence (Q63380 1-617): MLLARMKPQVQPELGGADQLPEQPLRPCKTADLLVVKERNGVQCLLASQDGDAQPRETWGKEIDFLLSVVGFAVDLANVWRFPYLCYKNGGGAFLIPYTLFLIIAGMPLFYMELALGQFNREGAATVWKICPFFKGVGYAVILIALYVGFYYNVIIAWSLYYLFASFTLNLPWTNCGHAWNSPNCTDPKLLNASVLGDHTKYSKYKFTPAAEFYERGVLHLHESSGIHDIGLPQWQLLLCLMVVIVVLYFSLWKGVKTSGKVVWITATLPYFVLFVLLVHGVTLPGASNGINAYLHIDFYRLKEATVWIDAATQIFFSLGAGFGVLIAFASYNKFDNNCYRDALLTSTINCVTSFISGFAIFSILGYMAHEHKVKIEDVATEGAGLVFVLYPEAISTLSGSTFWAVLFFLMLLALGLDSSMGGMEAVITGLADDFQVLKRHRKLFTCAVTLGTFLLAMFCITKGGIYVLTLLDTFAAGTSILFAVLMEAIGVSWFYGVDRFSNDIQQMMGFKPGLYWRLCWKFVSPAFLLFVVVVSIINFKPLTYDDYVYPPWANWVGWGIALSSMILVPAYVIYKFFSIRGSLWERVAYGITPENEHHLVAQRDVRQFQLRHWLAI
Chain of DAT (P23977 whole entry): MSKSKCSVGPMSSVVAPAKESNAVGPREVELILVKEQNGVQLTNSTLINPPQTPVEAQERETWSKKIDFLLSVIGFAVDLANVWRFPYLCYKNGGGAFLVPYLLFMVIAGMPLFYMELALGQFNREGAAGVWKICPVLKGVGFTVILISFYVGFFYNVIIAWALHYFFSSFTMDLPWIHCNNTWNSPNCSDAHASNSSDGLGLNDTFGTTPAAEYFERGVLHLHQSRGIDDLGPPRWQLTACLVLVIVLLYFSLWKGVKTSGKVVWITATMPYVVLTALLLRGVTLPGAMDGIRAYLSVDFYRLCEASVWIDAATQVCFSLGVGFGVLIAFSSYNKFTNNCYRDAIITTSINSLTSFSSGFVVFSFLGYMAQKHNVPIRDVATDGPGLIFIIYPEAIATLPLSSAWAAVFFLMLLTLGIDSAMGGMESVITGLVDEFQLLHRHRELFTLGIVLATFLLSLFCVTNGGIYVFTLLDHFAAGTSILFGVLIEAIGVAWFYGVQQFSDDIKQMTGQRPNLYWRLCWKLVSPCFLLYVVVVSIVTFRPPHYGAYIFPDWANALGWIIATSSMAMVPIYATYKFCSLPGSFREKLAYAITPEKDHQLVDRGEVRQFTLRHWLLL

For `COC(=O)[C@H]1[C@@H](c2ccc(SC)cc2)C[C@@H]2CC[C@H]1N2C` [7a, 3β-(4-Methylthiophenyl)tropane-2β-carboxylic acid methyl ester], at 5-HTT, the inhibitory constant (Ki) turned out to be 220 nM and the “NET/5-HTT Ratio” value was 314-364. For the same compound, at NET [1], the Ki was 220 ± 10 nM.
Take `CCSc1ccc([C@H]2C[C@@H]3CC[C@H]([C@H]2C(=O)OC)N3C)cc1` [7b, 3β-(4-Ethylthiophenyl)tropane-2β-carboxylic acid methyl ester]: the Ki on 5-HTT is 4.5 ± 0.5 nM; at NET [1] it was 1170 ± 300 nM.
Consider `COC(=O)[C@H]1[C@@H](c2ccc(SC(C)C)cc2)C[C@@H]2CC[C@H]1N2C` [7c, 3β-(4-Isopropylthiophenyl)tropane-2β-carboxylic acid methyl ester], for which the inhibition constant Ki at 5-HTT was found to be 129 nM; at NET [1] it was 129 ± 2 nM.
For `COC(=O)[C@H]1[C@@H](c2ccc(SC(F)(F)F)cc2)C[C@@H]2CC[C@H]1N2C` [7d, 3β-(4-Trifluoromethylthiophenyl)tropane-2β-carboxylic acid methyl ester], the Ki at NET [1] is 1900 ± 300 nM.
`COC(=O)[C@H]1[C@@H](c2ccc(SC)c(Br)c2)C[C@@H]2CC[C@H]1N2C` [7e, 3β-(3-Bromo-4-methylthiophenyl)tropane-2β-carboxylic acid methyl ester] came in with a Ki at NET [1] of 121 ± 12 nM.
`COC(=O)[C@H]1[C@@H](c2ccc([S+](C)[O-])c(Br)c2)C[C@@H]2CC[C@H]1N2C` (stereo partly drawn) [7f, 3β-(3-bromo-4-methylsulfinylphenyl)tropane-2β-carboxylic acid methyl ester] came in with a Ki on NET [1] of 690 ± 80 nM.
As for `COC(=O)[C@H]1[C@@H](c2ccc([S+](C)[O-])cc2)C[C@@H]2CC[C@H]1N2C` (stereo partly drawn) [7g, 3β-(4-methylsulfinylphenyl)tropane-2β-carboxylic acid methyl ester], the figures for the Ki at 5-HTT and on NET [1] were 4.3 ± 0.6 nM and 515 ± 60 nM, respectively.
On DAT, `COC(=O)[C@H]1[C@@H](c2ccc(S(C)(=O)=O)cc2)C[C@@H]2CC[C@H]1N2C` [7h, 3β-(4-Methylsulfonylphenyl)tropane-2β-carboxylic acid methyl ester] had an IC50 above 10000 nM. In addition, the Ki at 5-HTT is 208 ± 45 nM; at NET [1], above 10000 nM.
Regarding `COC(=O)[C@@H]1C2CCC(C[C@@H]1c1ccc(SC)cc1)N2` (stereo partly drawn) [8a, 3β-(4-Methylthiophenyl)nortropane-2β-carboxylic acid methyl ester], the “fold less affinity at the DAT” value at DAT (setting [3]) is 3 fold. The “fold increase in affinity at the 5-HTT” value on 5-HTT (setting [3]) is recorded as “approximately 4 fold”. Moreover, the “fold increase in affinity at the NET” value at NET [1] (setting [3]) was around 10 fold.
As to `COC(=O)[C@@H]1C2CCC(C[C@@H]1c1ccc(SC)cc1)N2CCCF` (stereo partly drawn) [9a, 3β-(4-Methylthiophenyl)-8-(3-fluoropropyl)nortropane-2β-carboxylic acid methyl ester], the “NET/5-HTT Ratio” value at 5-HTT is recorded as 314-364.
Same read-out and setting: under `C=CCN1C2CCC1[C@@H](C(=O)OC)[C@@H](c1ccc(SC)cc1)C2` (stereo partly drawn) [10a, 3β-(4-Methylthiophenyl)-8-allylnortropane-2β-carboxylic acid methyl ester] stands 314-364.
As for `COC(=O)[C@H]1[C@@H](c2ccc(OC)cc2)C[C@@H]2CC[C@H]1N2C` [compound 5, 3β-(4-methoxyphenyl)tropane-2β-carboxylic acid methyl ester], the Ki at NET [2] is 1110 ± 64 nM.
